# Assay results: article PMC5218480 (PLoS ONE, 2017)
# Test system: MV-4-11 cells
# Experiment: Gene expression microarray analysis (Affymetrix PrimeView) and GSEA
# Assay type: cell-based, human
# Design: RFU PODN (11730768_x_at) / Fold change /veh PODN (11730768_x_at) / RFU LINC00158 (11744669_a_at) / Fold change /veh LINC00158 (11744669_a_at) / RFU DUSP10 (11751237_a_at) / Fold change /veh DUSP10 (11751237_a_at) / RFU ID3 (11757404_x_at) / Fold change /veh ID3 (11757404_x_at) / RFU PLEKHG5 (11737974_s_at) / Fold change /veh PLEKHG5 (11737974_s_at) / RFU LRRC4B (11730491_at) / Fold change /veh LRRC4B (11730491_at) / RFU GIMAP4 (11747438_a_at) / Fold change /veh GIMAP4 (11747438_a_at) / RFU KRT8 (11758183_x_at) / Fold change /veh KRT8 (11758183_x_at) / RFU CNN1 (11734310_a_at) / Fold change /veh CNN1 (11734310_a_at) / RFU VPS37D (11726825_at) / Fold change /veh VPS37D (11726825_at) / RFU C10orf10 (11716522_x_at) / Fold change /veh C10orf10 (11716522_x_at) / RFU KIR2DL2 /// KIR2DL4 /// KIR2DL5A /// KIR2DL5B /// KIR2DS1 /// KIR2DS2 /// KIR2DS3 /// KIR2DS4 /// KIR3DL3 /// KIR3DL3 /// KIR3DS1 (11738374_at) / Fold change /veh KIR2DL2 /// KIR2DL4 /// KIR2DL5A /// KIR2DL5B /// KIR2DS1 /// KIR2DS2 /// KIR2DS3 /// KIR2DS4 /// KIR3DL3 /// KIR3DL3 /// KIR3DS1 (11738374_at) / RFU C1QL1 (11718748_at) / Fold change /veh C1QL1 (11718748_at) / RFU TMPRSS4 (11747572_a_at) / Fold change /veh TMPRSS4 (11747572_a_at) / RFU HAMP (11756126_x_at) / Fold change /veh HAMP (11756126_x_at) / RFU RNFT2 (11725882_a_at) / Fold change /veh RNFT2 (11725882_a_at) / RFU NR4A2 (11747474_a_at) / Fold change /veh NR4A2 (11747474_a_at) / RFU ABCC12 (11746883_a_at) / Fold change /veh ABCC12 (11746883_a_at) / RFU TMEM136 (11760407_x_at) / Fold change /veh TMEM136 (11760407_x_at) / RFU CLDN22 /// WWC2 (11732394_at) / Fold change /veh CLDN22 /// WWC2 (11732394_at) / RFU HLA-DPB1 (11760878_x_at) / Fold change /veh HLA-DPB1 (11760878_x_at) / RFU SPINT1 (11716480_a_at) / Fold change /veh SPINT1 (11716480_a_at) / RFU GAP43 (11754022_s_at) / Fold change /veh GAP43 (11754022_s_at) / RFU A4GNT (11735810_at) / Fold change /veh A4GNT (11735810_at) / RFU PRB3 (11715151_x_at) / Fold change /veh PRB3 (11715151_x_at) / RFU TUBB4B (11761932_at) / Fold change /veh TUBB4B (11761932_at) / RFU CAPN14 (11732068_a_at) / Fold change /veh CAPN14 (11732068_a_at) / RFU TMCC2 (11721928_a_at) / Fold change /veh TMCC2 (11721928_a_at) / RFU IRGQ (11745062_a_at) / Fold change /veh IRGQ (11745062_a_at) / RFU FAM174B (11720279_a_at) / Fold change /veh FAM174B (11720279_a_at) / RFU TMPRSS4 (11748680_a_at) / Fold change /veh TMPRSS4 (11748680_a_at) / RFU FAM212B (11763350_a_at) / Fold change /veh FAM212B (11763350_a_at) / RFU PLEKHG5 (11743358_a_at) / Fold change /veh PLEKHG5 (11743358_a_at) / RFU ZSCAN30 (11745921_a_at) / Fold change /veh ZSCAN30 (11745921_a_at) / RFU CMKLR1 (11741424_a_at) / Fold change /veh CMKLR1 (11741424_a_at) / RFU LOC101060620 /// MAPK8IP1 (11723275_at) / Fold change /veh LOC101060620 /// MAPK8IP1 (11723275_at) / RFU SPTSSB (11747773_x_at) / Fold change /veh SPTSSB (11747773_x_at) / RFU PRSS12 (11739890_at) / Fold change /veh PRSS12 (11739890_at) / RFU BIN1 (11741810_x_at) / Fold change /veh BIN1 (11741810_x_at) / RFU WNT11 (11732464_a_at) / Fold change /veh WNT11 (11732464_a_at) / RFU C10orf10 (11716521_a_at) / Fold change /veh C10orf10 (11716521_a_at) / RFU C5orf56 (11738089_at) / Fold change /veh C5orf56 (11738089_at) / RFU CYB561 (11721691_x_at) / Fold change /veh CYB561 (11721691_x_at) / RFU ANKRD19P (11752326_a_at) / Fold change /veh ANKRD19P (11752326_a_at) / RFU OR2T12 /// OR2T33 /// OR2T8 (11738714_s_at) / Fold change /veh OR2T12 /// OR2T33 /// OR2T8 (11738714_s_at) / RFU VCAN (11748164_a_at) / Fold change /veh VCAN (11748164_a_at) / RFU JSRP1 (11732532_at) / Fold change /veh JSRP1 (11732532_at) / RFU KRTAP10-11 (11738290_x_at) / Fold change /veh KRTAP10-11 (11738290_x_at) / RFU MYO3A (11730013_a_at) / Fold change /veh MYO3A (11730013_a_at) / RFU EBF3 (11725865_a_at) / Fold change /veh EBF3 (11725865_a_at) / RFU CAMK2N1 (11719241_x_at) / Fold change /veh CAMK2N1 (11719241_x_at) / RFU C5orf56 (11738088_a_at) / Fold change /veh C5orf56 (11738088_a_at) / RFU OLFML3 (11715873_a_at) / Fold change /veh OLFML3 (11715873_a_at) / RFU LOC100653217 /// NTM (11731650_a_at) / Fold change /veh LOC100653217 /// NTM (11731650_a_at) / RFU MAPK11 (11762145_a_at) / Fold change /veh MAPK11 (11762145_a_at) / RFU FIZ1 (11724087_x_at) / Fold change /veh FIZ1 (11724087_x_at) / RFU OASL (11726364_x_at) / Fold change /veh OASL (11726364_x_at) / RFU SOX15 (11748057_x_at) / Fold change /veh SOX15 (11748057_x_at) / RFU CD79A (11719716_a_at) / Fold change /veh CD79A (11719716_a_at) / RFU HIST1H1D (11736915_at) / Fold change /veh HIST1H1D (11736915_at) / RFU CASKIN2 (11723855_a_at) / Fold change /veh CASKIN2 (11723855_a_at) / RFU LOC730098 (11760151_x_at) / Fold change /veh LOC730098 (11760151_x_at) / RFU OR4N2 (11742367_at) / Fold change /veh OR4N2 (11742367_at) / RFU PRRT2 (11749266_a_at) / Fold change /veh PRRT2 (11749266_a_at) / RFU SNX32 (11753110_a_at) / Fold change /veh SNX32 (11753110_a_at) / RFU CDHR5 (11726645_a_at) / Fold change /veh CDHR5 (11726645_a_at) / RFU RCAN1 (11760418_a_at) / Fold change /veh RCAN1 (11760418_a_at) / RFU FAM167A (11723789_a_at) / Fold change /veh FAM167A (11723789_a_at) / RFU FAM26E (11764081_at) / Fold change /veh FAM26E (11764081_at) / RFU ISYNA1 (11749810_s_at) / Fold change /veh ISYNA1 (11749810_s_at) / RFU ACY1 (11761880_at) / Fold change /veh ACY1 (11761880_at) / RFU 11764098_at / Fold change /veh 11764098_at / RFU SAMD14 (11745864_x_at) / Fold change /veh SAMD14 (11745864_x_at) / RFU NPB (11741838_a_at) / Fold change /veh NPB (11741838_a_at) / RFU TMPRSS6 (11731388_a_at) / Fold change /veh TMPRSS6 (11731388_a_at) / RFU KRTAP10-2 (11738614_at) / Fold change /veh KRTAP10-2 (11738614_at) / RFU ARHGAP8 /// PRR5-ARHGAP8 (11727945_x_at) / Fold change /veh ARHGAP8 /// PRR5-ARHGAP8 (11727945_x_at) / RFU KRTAP5-7 /// NADSYN1 (11734609_at) / Fold change /veh KRTAP5-7 /// NADSYN1 (11734609_at) / RFU RASL12 (11751679_a_at) / Fold change /veh RASL12 (11751679_a_at) / RFU CDKN2B (11736163_a_at) / Fold change /veh CDKN2B (11736163_a_at) / RFU PRF1 (11729649_at) / Fold change /veh PRF1 (11729649_at) / RFU, ZNF638 /// ZNF638-IT1 / Fold change vs veh, ZNF638 /// ZNF638-IT1 / RFU, PANK3 / Fold change vs veh, PANK3 / RFU, SH3YL1 / Fold change vs veh, SH3YL1 / RFU, ZEB2 / Fold change vs veh, ZEB2 / RFU, NRIP1 / Fold change vs veh, NRIP1 / RFU, PTTG1IP / Fold change vs veh, PTTG1IP / RFU, CAPN2 / Fold change vs veh, CAPN2 / RFU, MED14 / Fold change vs veh, MED14 / RFU, SNORA58 / Fold change vs veh, SNORA58 / RFU, C1orf63 / Fold change vs veh, C1orf63 / RFU, LRRFIP1 / Fold change vs veh, LRRFIP1 / RFU, NDUFAF7 / Fold change vs veh, NDUFAF7 / RFU, SLC12A2 / Fold change vs veh, SLC12A2 / RFU, IBTK / Fold change vs veh, IBTK / RFU, ESF1 / Fold change vs veh, ESF1 / Fold change vs veh, TMEM50B / RFU, TAOK1 / Fold change vs veh, TAOK1 / RFU, ACBD3 / Fold change vs veh, ACBD3 / RFU, TMA16 / Fold change vs veh, TMA16 / RFU, RWDD3 / Fold change vs veh, RWDD3 / RFU, BCAT1 / Fold change vs veh, BCAT1 / RFU, EDEM3 / Fold change vs veh, EDEM3 / RFU, TMEM33 / Fold change vs veh, TMEM33 / RFU, WDR75 / Fold change vs veh, WDR75 / RFU, AHCTF1 / Fold change vs veh, AHCTF1 / RFU, TFRC / Fold change vs veh, TFRC / RFU, ZDHHC17 / Fold change vs veh, ZDHHC17 / RFU, NOM1 / Fold change vs veh, NOM1 / RFU, ARL8B / Fold change vs veh, ARL8B / RFU, ZBTB11 / Fold change vs veh, ZBTB11 / RFU, TAMM41 / Fold change vs veh, TAMM41 / RFU, KIAA1704 /// LOC100996395 / Fold change vs veh, KIAA1704 /// LOC100996395 / RFU, ING1 / Fold change vs veh, ING1 / RFU, TRMT61B / Fold change vs veh, TRMT61B / RFU, FUBP3 / Fold change vs veh, FUBP3 / RFU, TP53 / Fold change vs veh, TP53 / RFU, TNKS2 / Fold change vs veh, TNKS2 / RFU, ZFP14 / Fold change vs veh, ZFP14 / RFU, ACTR2 / Fold change vs veh, ACTR2 / RFU, PPP3R1 / Fold change vs veh, PPP3R1 / RFU, PIK3R1 / Fold change vs veh, PIK3R1 / RFU, HNRNPA1 / Fold change vs veh, HNRNPA1 / RFU, RNF170 / Fold change vs veh, RNF170 / RFU, ZNF28 / Fold change vs veh, ZNF28 / RFU, RNGTT / Fold change vs veh, RNGTT / RFU, OGT / Fold change vs veh, OGT / RFU, BRD1 / Fold change vs veh, BRD1 / RFU, MARS / Fold change vs veh, MARS / RFU, ZNF655 / Fold change vs veh, ZNF655 / RFU, FAHD1 / Fold change vs veh, FAHD1 / RFU, BDP1 / Fold change vs veh, BDP1 / RFU, LRRCC1 / Fold change vs veh, LRRCC1 / RFU, ARID1A / Fold change vs veh, ARID1A / RFU, ZNF146 / Fold change vs veh, ZNF146 / RFU, ZNF330 / Fold change vs veh, ZNF330 / RFU, GPN3 / Fold change vs veh, GPN3 / RFU, C9orf123 / Fold change vs veh, C9orf123 / RFU, N4BP2L2 / Fold change vs veh, N4BP2L2 / RFU, ARFIP1 / Fold change vs veh, ARFIP1 / RFU, FAM179B / Fold change vs veh, FAM179B / RFU, BCL10 / Fold change vs veh, BCL10 / RFU, UHRF1BP1L / Fold change vs veh, UHRF1BP1L / RFU, BET1 / Fold change vs veh, BET1 / RFU, CNOT2 / Fold change vs veh, CNOT2 / RFU, ZNF268 / Fold change vs veh, ZNF268 / Fold change vs veh, ZNF507 / RFU, DGCR2 / Fold change vs veh, DGCR2 / RFU, WDSUB1 / Fold change vs veh, WDSUB1 / Fold change vs veh, HSP90B1 /// MIR3652 / RFU, ADSS / Fold change vs veh, ADSS / RFU, GK / Fold change vs veh, GK / RFU, ZNF148 / Fold change vs veh, ZNF148 / RFU, TAF9 / Fold change vs veh, TAF9 / RFU, SLC1A5 / Fold change vs veh, SLC1A5 / RFU, SLMO2 / Fold change vs veh, SLMO2 / RFU, ABCC4 / Fold change vs veh, ABCC4 / RFU, LOC101060439 /// RAP1B / Fold change vs veh, LOC101060439 /// RAP1B / RFU, RFX7 / Fold change vs veh, RFX7 / RFU, GTPBP10 / Fold change vs veh, GTPBP10 / RFU, CNEP1R1 / Fold change vs veh, CNEP1R1 / RFU, BIVM-ERCC5 /// ERCC5 / Fold change vs veh, BIVM-ERCC5 /// ERCC5 / RFU, ILF3 / Fold change vs veh, ILF3 / RFU 11762660_at / Fold change /veh 11762660_at / RFU VCAN (11757783_s_at) / Fold change /veh VCAN (11757783_s_at) / RFU DDX43 (11728927_at) / Fold change /veh DDX43 (11728927_at) / RFU KRT8 (11758188_x_at) / Fold change /veh KRT8 (11758188_x_at) / RFU NKD1 (11759106_at) / Fold change /veh NKD1 (11759106_at) / RFU SRD5A1 (11742802_a_at) / Fold change /veh SRD5A1 (11742802_a_at) / RFU TPSAB1 /// TPSB2 (11721975_s_at) / Fold change /veh TPSAB1 /// TPSB2 (11721975_s_at) / RFU GSTM3 (11746129_a_at) / Fold change /veh GSTM3 (11746129_a_at) / RFU IL23R (11737362_x_at) / Fold change /veh IL23R (11737362_x_at) / RFU TMEM51 (11727254_a_at) / Fold change /veh TMEM51 (11727254_a_at) / RFU PIWIL2 (11732686_x_at) / Fold change /veh PIWIL2 (11732686_x_at) / RFU ORM1 (11744905_x_at) / Fold change /veh ORM1 (11744905_x_at) / RFU CCDC152 (11743942_at) / Fold change /veh CCDC152 (11743942_at) / RFU ECM1 (11717891_a_at) / Fold change /veh ECM1 (11717891_a_at) / RFU IL23R (11748794_a_at) / Fold change /veh IL23R (11748794_a_at) / RFU TNFAIP8L3 (11732012_x_at) / Fold change /veh TNFAIP8L3 (11732012_x_at) / RFU MBOAT4 (11741988_at) / Fold change /veh MBOAT4 (11741988_at) / RFU 11764193_at / Fold change /veh 11764193_at / RFU TMEM53 (11763286_at) / Fold change /veh TMEM53 (11763286_at) / RFU MAGEB2 (11727129_at) / Fold change /veh MAGEB2 (11727129_at) / RFU TMEM200A (11744735_a_at) / Fold change /veh TMEM200A (11744735_a_at) / RFU CCDC152 (11751479_a_at) / Fold change /veh CCDC152 (11751479_a_at) / RFU FAM211A (11726209_a_at) / Fold change /veh FAM211A (11726209_a_at) / RFU RGS16 (11746705_a_at) / Fold change /veh RGS16 (11746705_a_at) / RFU VCAN (11755009_s_at) / Fold change /veh VCAN (11755009_s_at) / RFU RHOB (11743442_s_at) / Fold change /veh RHOB (11743442_s_at) / RFU RGS16 (11720943_a_at) / Fold change /veh RGS16 (11720943_a_at) / RFU RGS16 (11720944_at) / Fold change /veh RGS16 (11720944_at) / RFU, VPS4B / Fold change vs veh, VPS4B / RFU, CREB1 / Fold change vs veh, CREB1 / RFU, DNAJC13 / Fold change vs veh, DNAJC13 / RFU, GNAQ / Fold change vs veh, GNAQ / RFU, CDK5R1 / Fold change vs veh, CDK5R1 / RFU, ZRANB3 / Fold change vs veh, ZRANB3 / RFU, CUL4A / Fold change vs veh, CUL4A / RFU, CCNY / Fold change vs veh, CCNY / RFU, UFL1 / Fold change vs veh, UFL1 / RFU, COG3 / Fold change vs veh, COG3 / RFU, DIAPH2 / Fold change vs veh, DIAPH2 / RFU, SKA2 / Fold change vs veh, SKA2 / RFU, AFF3 / Fold change vs veh, AFF3 / RFU, LMF1 / Fold change vs veh, LMF1 / RFU, IPO11 / Fold change vs veh, IPO11 / RFU, DFFB / Fold change vs veh, DFFB / RFU, FOXP1 / Fold change vs veh, FOXP1 / RFU, CARD8 / Fold change vs veh, CARD8 / RFU, STRN3 / Fold change vs veh, STRN3 / RFU, ADK / Fold change vs veh, ADK / RFU, RASSF2 / Fold change vs veh, RASSF2 / RFU, WIPF1 / Fold change vs veh, WIPF1 / RFU, LARP1B / Fold change vs veh, LARP1B / RFU, RASA1 / Fold change vs veh, RASA1 / RFU, RB1 / Fold change vs veh, RB1 / RFU, PPFIA1 / Fold change vs veh, PPFIA1 / RFU, MAT2A / Fold change vs veh, MAT2A / RFU, CCT5 / Fold change vs veh, CCT5 / RFU, WDR92 / Fold change vs veh, WDR92 / RFU, CUX1 / Fold change vs veh, CUX1 / RFU, TTC7A / Fold change vs veh, TTC7A / RFU, TMEM135 / Fold change vs veh, TMEM135 / RFU, DEPTOR / Fold change vs veh, DEPTOR / RFU, CPM / Fold change vs veh, CPM / RFU, DNAJB6 / Fold change vs veh, DNAJB6 / RFU, CACNA2D3 / Fold change vs veh, CACNA2D3 / RFU, DTX4 / Fold change vs veh, DTX4 / RFU, TFCP2 / Fold change vs veh, TFCP2 / RFU, GMCL1 /// GMCL1P1 / Fold change vs veh, GMCL1 /// GMCL1P1 / RFU, AEBP2 / Fold change vs veh, AEBP2 / RFU, SNHG1 /// SNORD22 /// SNORD25 /// SNORD26 /// SNORD27 /// SNORD28 /// SNORD29 /// SNORD31 / Fold change vs veh, SNHG1 /// SNORD22 /// SNORD25 /// SNORD26 /// SNORD27 /// SNORD28 /// SNORD29 /// SNORD31 / Fold change (Aza/veh), C12orf56 (ProbeSet 11735607_a_at) / Fold change (ACY-1035/veh), C12orf56 (ProbeSet 11735607_a_at) / Fold change (Aza/veh), FGFR1OP (ProbeSet 11751329_s_at) / Fold change (ACY-1035/veh), FGFR1OP (ProbeSet 11751329_s_at) / Fold change (Aza/veh), VPS36 (ProbeSet 11739960_a_at) / Fold change (ACY-1035/veh), VPS36 (ProbeSet 11739960_a_at) / RFU SYPL1 (11715823_x_at) / Fold change /veh SYPL1 (11715823_x_at) / RFU IGFBP7 (11715501_s_at) / Fold change /veh IGFBP7 (11715501_s_at) / RFU REEP3 (11722064_at) / Fold change /veh REEP3 (11722064_at) / RFU IGLL1 (11728026_x_at) / Fold change /veh IGLL1 (11728026_x_at): dose or concentration left out as unconfirmed
# Conditions: MV-4-11 cells, 48 hours
smiles,measurement,value
Nc1ncn([C@@H]2O[C@H](CO)[C@@H](O)[C@H]2O)c(=O)n1 [azacitidine],RFU HIST1H1D (11736915_at),16.89 RFU
